Patent US20260258032A1, “TYROSINE KINASE 2 INHIBITORS AND USES THEREOF” (BIOGEN MA INC., priority 2022, published 2026)
pIC50: −log10 of the molar value. Counter-ions that a name gives are not always drawn.

How the values were obtained:
JH2 domain of human Tyk2 = molecular target: T1, JH2 domain of human Tyk2 (Homo sapiens, UniProt P29597); assay: JH2 biochemical assay (TR-FRET probe displacement); format: binding; conditions: JH2 biochemical assay
T1 construct: 10×His-tagged TYK2 JH2 domain (amino acid 575-876)
Description: The inhibitory potency of compounds of the disclosure against the kinase activity of recombinantly generated JH2 domain of human Tyk2 was evaluated in a plate-based assay using a TR-FRET assay platform. Briefly, 2 nM of recombinant JH2 domain [10×His-tagged TYK2 JH2 domain (amino acid 575-876)] was combined with 2 nM probe ((S)-6-amino-9-(2-carboxy-4-((1-(3-(8-methyl-5-(methylamino)-8H-imidazo[4,5-d]thiazolo[5,4-b]pyridin-2-yl)phenyl)ethyl)carbamoyl)phenyl)-3-iminio-5-sulfo-3H-xanthene-4-sulfonate), 0.1 nM Tb-labeled anti-His antibody, and compounds of disclosure for 60 minutes. Compounds are tested at either […] top concentration, 10 points of 3-fold dilution. The TR-FRET signal […] by compounds and signal was calculated by taking the ratio of fluorescence at 520 nm and 495 nm. The data was normalized and the percent activity versus log concentration of compound was fitted with a 4-parameter logistic model to generate IC50 curves.

[1] = system: Tyk2 kinase activity on STAT4; assay: pSTAT4 cell assay (MSD, NK92 cells); format: cell-based; conditions: compounds 1 hr, stimulated 15 minutes
Description: The inhibitory potency of compounds of the disclosure against the Tyk2 kinase activity on STAT4 was evaluated using an MSD-platform plate-based assay format. NK92 cells natively expressing STAT4 and Tyk2 were serum-starved to reduce background phosphorylation levels, then cells were treated compounds for 1 hr with a 10-point four-fold dilution series starting at 10 μM. Cells were then stimulated with 30 ng/mL IL2 for 15 minutes. Cells were lysed and […] levels were quantitated using an MSD plate-based assay with anti-STAT4 antibodies. The data were normalized and the percent activity versus log concentration of compound were fitted with a 4-parameter logistic model to generate to generate IC50 curves.

T1 sequence (P29597 575-876): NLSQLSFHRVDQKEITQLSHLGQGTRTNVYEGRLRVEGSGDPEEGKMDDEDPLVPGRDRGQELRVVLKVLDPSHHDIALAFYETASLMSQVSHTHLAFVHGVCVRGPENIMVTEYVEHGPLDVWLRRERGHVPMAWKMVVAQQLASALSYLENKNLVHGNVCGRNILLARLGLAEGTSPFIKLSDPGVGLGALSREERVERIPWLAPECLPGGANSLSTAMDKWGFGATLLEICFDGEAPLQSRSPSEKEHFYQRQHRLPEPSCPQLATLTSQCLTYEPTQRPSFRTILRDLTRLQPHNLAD

SMILES | pIC50 (JH2 domain of human Tyk2) | pIC50 [1]
CC(=O)Nc1cc2c(cn1)C1(CC1)CN2c1cc([C@@H]2C[C@H]2C#N)nc(C(C)(F)F)n1 (racemic) [Example 72, trans-rac-N-(1′-(6-(2-cyanocyclopropyl)-2-(1,1-difluoroethyl)pyrimidin-4-yl)-1′,2′-dihydrospiro[cyclopropane-1,3′-pyrrolo[3,2-c]pyridin]-6′-yl)acetamide or cis-rac-N-(1′-(6-(2-cyanocyclopropyl)-2-(1,1-difluoroethyl)pyrimidin-4-yl)-1′,2′-dihydrospiro[cyclopropane-1,3′-pyrrolo[3,2-c]pyridin]-6′-yl)acetamide] | ≥ 8.00 | 6.00 to 7.00
CC(=O)Nc1cc2c(cn1)C1(CC1)CN2c1cc([C@@H]2C[C@@H]2C#N)nc(C(C)(F)F)n1 (racemic) [Example 73, cis-rac-N-(1′-(6-(2-cyanocyclopropyl)-2-(1,1-difluoroethyl)pyrimidin-4-yl)-1′,2′-dihydrospiro[cyclopropane-1,3′-pyrrolo[3,2-c]pyridin]-6′-yl)acetamide or trans-rac-N-(1′-(6-(2-cyanocyclopropyl)-2-(1,1-difluoroethyl)pyrimidin-4-yl)-1′,2′-dihydrospiro[cyclopropane-1,3′-pyrrolo[3,2-c]pyridin]-6′-yl)acetamide] | ≥ 8.00 | 7.00 to 8.00
COCCOc1cc(N2CC3(CC3)c3cnc(NC(C)=O)cc32)nc(C(C)(F)F)n1 [Example 4, N-(1′-(2-(1,1-difluoroethyl)-6-(2-methoxyethoxy)pyrimidin-4-yl)-1′,2′-dihydrospiro[cyclopropane-1,3′-pyrrolo[3,2-c]pyridin]-6′-yl)acetamide] | ≥ 8.00 | 6.00 to 7.00
COC1CC(Oc2cc(N3CC4(CC4)c4cnc(NC(C)=O)cc43)nc(C(C)(F)F)n2)C1 (stereo not drawn) [Example 5, N-(1′-(2-(1,1-difluoroethyl)-6-(3-methoxycyclobutoxy)pyrimidin-4-yl)-1′,2′-dihydrospiro[cyclopropane-1,3′-pyrrolo[3,2-c]pyridin]-6′-yl)acetamide] | ≥ 8.00 | 7.00 to 8.00
CC(=O)Nc1cc2c(cn1)C1(CC1)CN2c1cc(OC2CC2)nc(C(C)(F)F)n1 [Example 6, N-(1′-(6-cyclopropoxy-2-(1,1-difluoroethyl)pyrimidin-4-yl)-1′,2′-dihydrospiro[cyclopropane-1,3′-pyrrolo[3,2-c]pyridin]-6′-yl)acetamide] | ≥ 8.00 | 7.00 to 8.00
CC(=O)Nc1cc2c(cn1)C1(CC1)CN2c1ccc(F)c(C(C)(F)F)n1 [Example 7, N-(1′-(6-(1,1-difluoroethyl)-5-fluoropyridin-2-yl)-1′,2′-dihydrospiro[cyclopropane-1,3′-pyrrolo[3,2-c]pyridin]-6′-yl)acetamide] | ≥ 8.00 | 6.00 to 7.00
COc1ccc(N2CC3(CC3)c3cnc(NC(C)=O)cc32)nc1C(C)(F)F [Example 8, N-(1′-(6-(1,1-difluoroethyl)-5-methoxypyridin-2-yl)-1′,2′-dihydrospiro[cyclopropane-1,3′-pyrrolo[3,2-c]pyridin]-6′-yl)acetamide] | ≥ 8.00 | 6.00 to 7.00
CC(=O)Nc1cc2c(cn1)C1(CC1)CN2c1cc(N(C)C)nc(C(C)(F)F)n1 [Example 20, N-(1′-(2-(1,1-difluoroethyl)-6-(dimethylamino)pyrimidin-4-yl)-1′,2′-dihydrospiro[cyclopropane-1,3′-pyrrolo[3,2-c]pyridin]-6′-yl)acetamide] | ≥ 8.00 | 6.00 to 7.00
COC1CC(c2cc(N3CC4(CC4)c4cnc(NC(C)=O)cc43)nc(C(C)(F)F)n2)C1 (stereo not drawn) [Example 23, N-(1′-(2-(1,1-difluoroethyl)-6-(3-methoxycyclobutyl)pyrimidin-4-yl)-1′,2′-dihydrospiro[cyclopropane-1,3′-pyrrolo[3,2-c]pyridin]-6′-yl)acetamid] | ≥ 8.00 | 7.00 to 8.00
CC(=O)Nc1cc2c(cn1)C1(CC1)CN2c1cc(C2CCC2)nc(C(C)(F)F)n1 [Example 24, N-(1′-(6-cyclobutyl-2-(1,1-difluoroethyl)pyrimidin-4-yl)-1′,2′-dihydrospiro[cyclopropane-1,3'-pyrrolo[3,2-c]pyridin]-6'-yl)acetamide] | ≥ 8.00 | 7.00 to 8.00
CC(=O)Nc1cc2c(cn1)C1(CC1)CN2c1cc(C2CCCO2)nc(C(C)(F)F)n1 (stereo not drawn) [Example 26, N-(1′-(2-(1,1-difluoroethyl)-6-(tetrahydrofuran-2-y1)pyrimidin-4-yl)-1′,2′-dihydrospiro[cyclopropane-1,3′-pyrrolo[3,2-c]pyridin]-6′-yl)acetamide] | ≥ 8.00 | 6.00 to 7.00
CSc1nc(C)cc(N2CC3(CC3)c3cnc(NC(C)=O)cc32)n1 [Example 29, N-(1′-(6-methyl-2-(methylthio)pyrimidin-4-yl)-1′,2′-dihydrospiro[cyclopropane-1,3′-pyrrolo[3,2-c]pyridin]-6′-yl)acetamide] | ≥ 8.00 | 6.00 to 7.00
CC(=O)Nc1cc2c(cn1)C1(CC1)CN2c1cc(Oc2ccnnc2)nc(C(C)(F)F)n1 [Example 147, N-(1′-(2-(1,1-difluoroethyl)-6-(pyridazin-4-yloxy)pyrimidin-4-yl)-1′,2′-dihydrospiro[cyclopropane-1,3′-pyrrolo[3,2-c]pyridin]-6′-yl)acetamide trifluoroacetate] | – | ≤ 6.00
CC(=O)Nc1cc2c(cn1)C1(CC1)CN2c1cc(NC23CC(C2)C3)nc(C(C)(F)F)n1 [Example 159, N-(1′-(6-(bicyclo[1.1.1]pentan-1-ylamino)-2-(1,1-difluoroethyl)pyrimidin-4-yl)-1′,2′-dihydrospiro[cyclopropane-1,3′-pyrrolo[3,2-c]pyridin]-6′-yl)acetamide trifluoroacetate] | – | 7.00 to 8.00
CC(=O)Nc1cc2c(cn1)C1(CC1)CN2c1cc(C)nc(N2CCC(N(C)C)C2)n1 (stereo not drawn) [Example 215, N-(1′-(2-(3-(dimethylamino)pyrrolidin-1-yl)-6-methylpyrimidin-4-yl)-1′,2′-dihydrospiro[cyclopropane-1,3′-pyrrolo[3,2-c]pyridin]-6′-yl)acetamide] | – | ≤ 6.00
CC(=O)Nc1cc2c(cn1)C1(CC1)CN2c1cc(C)nc(-c2cnn(C3CCC3)c2)n1 [Example 246, N-(1′-(2-(1-cyclobutyl-1H-pyrazol-4-yl)-6-methylpyrimidin-4-yl)-1′,2′-dihydrospiro[cyclopropane-1,3′-pyrrolo[3,2-c]pyridin]-6′-yl)acetamide] | – | ≤ 6.00
CC(=O)Nc1cc2c(cn1)C1(CC1)CN2c1cc(C)nc(-c2cc[nH]n2)n1 [Example 252, N-(1′-(6-methyl-2-(1H-pyrazol-3-yl)pyrimidin-4-yl)-1′,2′-dihydrospiro[cyclopropane-1,3′-pyrrolo[3,2-c]pyridin]-6′-yl)acetamide trifluoroacetate] | – | 6.00 to 7.00
CC(=O)Nc1cc2c(cn1)C1(CC1)CN2c1cc(C)nc(-c2cnc(C)s2)n1 [Example 255, N-(1′-(6-methyl-2-(2-methylthiazol-5-yl)pyrimidin-4-yl)-1′,2′-dihydrospiro[cyclopropane-1,3′-pyrrolo[3,2-c]pyridin]-6′-yl)acetamide trifluoroacetate] | – | ≤ 6.00
CC(=O)Nc1cc2c(cn1)C1(CC1)CN2c1cc(CCCO)nc(C(C)(F)F)n1 [Example 295, N-(1′-(2-(1,1-difluoroethyl)-6-(3-hydroxypropyl)pyrimidin-4-yl)-1′,2′-dihydrospiro[cyclopropane-1,3′-pyrrolo[3,2-c]pyridin]-6′-yl)acetamide] | – | 7.00 to 8.00
CC(=O)Nc1cc2c(cn1)C1(CC1)CN2c1cc(C(C)C#N)nc(C(C)(F)F)n1 (stereo not drawn) [Example 302, N-(1′-(6-(1-cyanoethyl)-2-(1,1-difluoroethyl)pyrimidin-4-yl)-1′,2′-dihydrospiro[cyclopropane-1,3′-pyrrolo[3,2-c]pyridin]-6′-yl)acetamide] | – | 6.00 to 7.00
COCCOc1nc(C)cc(N2CC3(CC3)c3cnc(NC(C)=O)cc32)n1 [Example 360, N-(1′-(2-(2-methoxyethoxy)-6-methylpyrimidin-4-yl)-1′,2′-dihydrospiro[cyclopropane-1,3′-pyrrolo[3,2-c]pyridin]-6′-yl)acetamide trifluoroacetate] | – | ≤ 6.00
CC(=O)Nc1cc2c(cn1)C1(CC1)CN2c1cc(C)nc(OC(C)C)n1 [Example 362, N-(1′-(2-isopropoxy-6-methylpyrimidin-4-yl)-1′,2′-dihydrospiro[cyclopropane-1,3′-pyrrolo[3,2-c]pyridin]-6′-yl)acetamide trifluoroacetate] | – | 6.00 to 7.00
CC(=O)Nc1cc2c(cn1)C1(CC1)CN2c1cc(C)nc(OC2(C)COC2)n1 [Example 365, N-(1′-(6-methyl-2-((3-methyloxetan-3-yl)oxy)pyrimidin-4-yl)-1′,2′-dihydrospiro[cyclopropane-1,3′-pyrrolo[3,2-c]pyridin]-6′-yl)acetamide] | – | 6.00 to 7.00
CC(=O)Nc1cc2c(cn1)C1(CC1)CN2c1cc(C)nc(OCC2COC2)n1 [Example 366, N-(1′-(6-methyl-2-(oxetan-3-ylmethoxy)pyrimidin-4-yl)-1′,2′-dihydrospiro[cyclopropane-1,3′-pyrrolo[3,2-c]pyridin]-6′-yl)acetamide trifluoroacetate] | – | 6.00 to 7.00
